“Also recorded” adds a separate entry of the source.
Legend:
endocrine system [1] = settings: cited from earlier work; for Endocrine suppression, weight control and P/F ratio: levels of administration described in the copending application; for Production of gonadal hormones / Production of thyroid hormones: parenteral administration, copending application
endocrine system [2] = test: Endocrine suppression activity in animals, general statements; assay type: in vivo
[3] = Weight control and P/F ratio of animals, general statements; assay type: in vivo; settings: for Improved P/F ratio, lowest dosage / Weight control activity, lowest dosage: decreasing dosage
[4] = Body weight of adult male rats treated intraventricularly (Example 4); assay type: in vivo, rat; settings: i/vt CoPP 0.4 μmol/kg b.w.; 5 animals; FIG. 4
Description: FIG. 4 depicts the means ±SEM of the body weights of 5 adult male rats treated i/vt with vehicle and 5 animals with CoPP 0.4 μmol/kg b.w. ( , lower panel).

[5] = Body weight of adult male rats after intraventricular injection, dose response (Example 3); assay type: in vivo, rat
Method: Adult male rats were anesthetized during stereotaxic placement of chronic indwelling catheters into the third ventricle of the brain. After 3-4 days post-operative recovery, animals were injected intraventricularly (i/vt) with small volumes (<10μl) of vehicle or CoPP 0.1, 0.2 (o) or 0.4 μmol/kg b.w.

hormone concentrations = test: Hormone concentrations of treated rats, overall statement (Example 1); assay type: in vivo, Sprague-Dawley rat
Method: (§1) Adult male Sprague-Dawley rats (≈250 g) were injected subcutaneously with CoPP 1 μmol/kg b.w. (12 rats) or vehicle (12 rats) on day 0. Thereafter, injections (Vertical arrows in FIG. 1) were repeated weekly until 10 doses had been given. Animals were allowed Purina rat chow and water ad libitum and animal weights were recorded thrice weekly; means are presented in FIG. 1 ( is control and treated animals). On day 71, 6 control rats and 6 CoPP-treated rats were sacrificed, blood collected for hormone determinations and hepatic mitochondrial and microsomal fractions prepared for biochemical assays. These procedures were repeated at day 124 for the remainder of the animals.

testosterone [6] = test: Serum testosterone of male Beagle dogs after weekly intramuscular injections (Example 2); assay type: in vivo, Beagle dog; settings: for Testosterone (serum): n = 3
Method: (§2) Adult male Beagle dogs (≈1 year) were housed in single runs with free access to Purina dog chow and water. On day 0, 3 animals were injected intramuscularly in the upper posterolateral aspect of the hindlimb with CoPP 2.5 μmol/kg b.w., and 3 animals with control vehicle. Injections (Vertical arrows in FIG. 2) were repeated weekly, in alternating hindlimbs, until a: total of 9 doses had been given. Animal weights were recorded thrice weekly and means are presented in FIG. 2 ( is control and is treated animals).
The effects of 9 serial doses of CoPP 2.5 μmol/kg b.w. on serum
testosterone concentrations in male Beagle dogs.

[7] = tested on: Aryl hydrocarbon hydroxylase; test: Hepatic aryl hydrocarbon hydroxylase activity of treated rats (Example 1); assay type: in vivo, Sprague-Dawley rat; settings: Day 71; 10 serial doses of CoPP 1 μmol/kg b.w. s.c.; n = 6; control 275 ± 24
Method: as §1
(§3) The effects of 10 serial doses of CoPP 1 μmol/kg b.w. on weight,
(§4) *n = 12; for all other parameters, n = 6 animals per treatment.

[8] = Body weight and naso-anal length of adult male rats after weekly subcutaneous injections (Example 1); assay type: in vivo, Sprague-Dawley rat
Method: as §1, §3, §4
**As calculated by Student's Ttest. The only significant changes are in […]

Heme oxygenase = test: Hepatic heme oxygenase activity of treated rats (Example 1); assay type: in vivo, Sprague-Dawley rat; settings: Day 71; 10 serial doses of CoPP 1 μmol/kg b.w. s.c.; n = 6; control 1.85 ± 0.15
Method: as §1, §3, §4

[9] = tested on: δ-Aminolevulinic acid synthase; test: Hepatic δ-aminolevulinic acid synthase activity of treated rats (Example 1); assay type: in vivo, Sprague-Dawley rat; settings: Day 71; 10 serial doses of CoPP 1 μmol/kg b.w. s.c.; n = 6; control 0.29 ± 0.02
Method: as §1, §3, §4

[10] = tested on: heme pathway and cytochrome P-450-dependent enzyme activities; test: Heme pathway and cytochrome P-450-dependent enzyme activities of treated rats, overall statement (Example 1); assay type: in vivo, Sprague-Dawley rat; settings: CoPP 1 μmol/kg b.w. s.c. weekly, 10 doses
Method: as §1

[11] = tested on: 7-Ethoxycoumarin de-ethylase; test: Hepatic 7-ethoxycoumarin de-ethylase activity of treated rats (Example 1); assay type: in vivo, Sprague-Dawley rat; settings: Day 71; 10 serial doses of CoPP 1 μmol/kg b.w. s.c.; n = 6; control 0.41 ± 0.04
Method: as §1, §3, §4

[12] = Body weight of adult male Beagle dogs after weekly intramuscular injections (Example 2); assay type: in vivo, Beagle dog
Method: as §2

LH = LH concentration in blood of subcutaneously treated rats (Example 1); assay type: in vivo, Sprague-Dawley rat; settings: Day 124; 10 serial doses of CoPP 1 μmol/kg b.w. s.c.; n = 6; control 21.1 ± 3.29
Method: as §1, §3, §4

testosterone [13] = test: Testosterone concentration of adult male rats treated intraventricularly (Example 4); assay type: in vivo, rat; settings: i/vt CoPP 0.4 μmol/kg b.w.; 5 animals; FIG. 4
[14] = tested on: Ethylmorphine demethylase; test: Hepatic ethylmorphine demethylase activity of treated rats (Example 1); assay type: in vivo, Sprague-Dawley rat; settings: Day 71; 10 serial doses of CoPP 1 μmol/kg b.w. s.c.; n = 6; control 0.43 ± 0.05
Method: as §1, §3, §4

cytochrome P-450 [15] = settings: administration to animals; lowest level 25 μm/kg body weight; cited from earlier work
Insulin = Insulin concentration in blood of subcutaneously treated rats (Example 1); assay type: in vivo, Sprague-Dawley rat; settings: Day 124; 10 serial doses of CoPP 1 μmol/kg b.w. s.c.; n = 6; control 156 ± 47.6
Method: as §1, §3, §4

Testosterone [16] = test: Testosterone concentration in blood of subcutaneously treated rats (Example 1); assay type: in vivo, Sprague-Dawley rat; settings: 10 serial doses of CoPP 1 μmol/kg b.w. s.c., n = 6
Method: as §1, §3, §4

[17] = Prolonged body weight loss after single intraventricular treatment (Example 5); assay type: in vivo, rat; settings: single i/vt CoPP 0.2 or 0.4 μmol/kg b.w.; n=4; FIG. 5
Description: The prolonged loss of body weight following single i/vt treatments with CoPP 0.2 or 0.4 μmol/kg b.w. are contrasted with that of vehicle-treated rats in FIG. 5 (n=4).

Cytochrome P-450 [18] = test: Hepatic cytochrome P-450 content of treated rats (Example 1); assay type: in vivo, Sprague-Dawley rat; settings: Day 71; 10 serial doses of CoPP 1 μmol/kg b.w. s.c.; n = 6; control 1.06 ± 0.23
Method: as §1, §3, §4

Aniline hydroxylase = test: Hepatic aniline hydroxylase activity of treated rats (Example 1); assay type: in vivo, Sprague-Dawley rat; settings: Day 71; 10 serial doses of CoPP 1 μmol/kg b.w. s.c.; n = 6; control 59 ± 3.48
Method: as §1, §3, §4

[19] = at about 10 μm/kg b.w., say 9.8 μm/kg b.w.
[20] = preferred range 0.1 to 0.3 μm/kg b.w.
[21] = similar administration to FIGS. 1-5
[22] = CoPP 1 μmol/kg b.w. s.c. weekly, 10 doses

In the case of `CCC1=C(C)c2cc3[n-]c(cc4[n-]c(cc5nc(cc1n2)C(C)=C5CC)c(C)c4CCC(=O)[O-])c(CCC(=O)[O-])c3C.[Co+2].[H+].[H+]` [CoMP, cobalt mesoporphyrin], the “Endocrine suppression, weight control and P/F ratio” value (endocrine system [1]) is given as “endocrine suppression, weight control and improved P/F ratio all take place simultaneously”, the “Production of gonadal hormones” value (endocrine system [1]) is given as “limit the production of gonadal hormones” and the “Production of thyroid hormones” value (endocrine system [1]) is given as “suppress the production of thyroid hormones”. For the same compound, the Endocrine suppression activity (endocrine system [2]; at 4 μm/kg b.w.) was “effectively disappeared”, the Endocrine suppression activity (endocrine system [2]; [19]) was “negligible” and the Endocrine suppression activity (endocrine system [2]; dependence on dosage) was “declines as the dosage is decreased”. The Endocrine suppression activity (endocrine system [2]; [20]) was “substantially no endocrine suppression activity”, the “Improved P/F ratio, lowest dosage” value [3] was “continues even down to as low as 0.1 μm/kg b.w” and the “Weight control activity, lowest dosage” value [3] was “continues even down to as low as 0.1 μm/kg b.w”. For the same compound, the P/F ratio [3, 21] was “improved P/F ratios” and the “Results relative to those illustrated in the figures for CoPP” value [3, 21] was “Comparable results”.

In the case of `C=CC1=C(C)c2cc3[n-]c(cc4nc(cc5[n-]c(cc1n2)c(C)c5CCC(=O)[O-])C(CCC(=O)[O-])=C4C)c(C)c3C=C.[Co+2].[H+].[H+]` [CoPP, cobalt protoporphyrin], the Weight loss [4] is reported as “typical weight loss”, the “Weight loss (FIG. 3)” value ([5]; adult male rats, intraventricular administration, Example 3) is reported as “weight loss achieved” and the “Effects on body weight, dose dependence” value ([5]; i/vt CoPP 0.1, 0.2 or 0.4 μmol/kg b.w., 4-6 animals per group) is reported as “dose responsive”. The “i/vt dosage relative to s/c dosage required to elicit the same changes (fold less)” value ([5]; intraventricular versus s/c administration) was 50-100 fold less, the “Difference in hormone concentrations vs control” value (hormone concentrations; [22]) was “no significant differences” and the “Hormone concentration change (FIG. 1 with Table I)” value (hormone concentrations; adult male rats, Example 1) was “without decrease in hormone concentration”. The “Endocrine suppression, weight control and P/F ratio” value (endocrine system [1]) was “endocrine suppression, weight control and improved P/F ratio all take place simultaneously”, the “Production of gonadal hormones” value (endocrine system [1]) was “limit the production of gonadal hormones” and the “Production of thyroid hormones” value (endocrine system [1]) was “suppress the production of thyroid hormones”. The “Testosterone (serum)” value (testosterone [6]; Day 0 (before start of the experiment), CoPP 2.5 μmol/kg b.w. group, control 1.82 ± 0.65) was 2.03 ± 0.57 ng/mL, the “Testosterone (serum)” value (testosterone [6]; Day 62, 9 serial doses of CoPP 2.5 μmol/kg b.w. i.m. weekly, control 1.73 ± 0.52) was 2.15 ± 1.52 ng/mL and the “Testosterone (serum)” value (testosterone [6]; Day 112, 9 serial doses of CoPP 2.5 μmol/kg b.w. i.m. weekly, control 1.67 ± 0.03) was 1.92 ± 0.83 ng/mL. For the same compound, the “Testosterone level change (FIG. 2 with Table II)” value (testosterone [6]; adult male dogs, Example 2) was “no decrease in testosterone levels”, the “Effect on testosterone concentrations” value (testosterone [6]; days 62 and 112, CoPP 2.5 μmol/kg b.w. i.m.) was “no effect” and the Aryl hydrocarbon hydroxylase [7] was 291 ± 28 pmol 80HBP/mg prot/hr. The “Difference in weights of control and CoPP-treated rats” value [8, 22] was “highly significant”, the Body weight ([8]; Day 71, 10 serial doses of CoPP 1 μmol/kg b.w. s.c. weekly, n = 12, control 568 ± 16) was 442 ± 5 g and the “Body weight” value ([8]; Day 124, 10 serial doses of CoPP 1 μmol/kg b.w. s.c., n = 6, control 633 ± 39) was 541 ± 12 g. The “Body weight change (FIG. 1)” value ([8]; adult male rats, Example 1) was “decrease in body weight”, the Heme oxygenase (Heme oxygenase) was 2.08 ± 0.21 nmol bilirubin/mg prot/hr and the Endocrine suppression activity (endocrine system [2]; at 4 μm/kg b.w.) was “effectively disappeared”. For the same compound, the Endocrine suppression activity (endocrine system [2]; [19]) was “negligible”, the Endocrine suppression activity (endocrine system [2]; dependence on dosage) was “declines as the dosage is decreased” and the Endocrine suppression activity (endocrine system [2]; [20]) was “substantially no endocrine suppression activity”. The δ-Aminolevulinic acid synthase [9] was 0.30 ± 0.01 μmol ALA/mg prot/90', the “Difference in heme pathway and cytochrome P-450-dependent enzyme activities vs control” value [10] was “no significant differences” and the 7-Ethoxycoumarin de-ethylase [11] was 0.53 ± 0.03 μmol/mg prot/hr. The “Body weight change (FIG. 2)” value ([12]; adult male dogs, Example 2) was “decrease in body weight”, the Mean weights ([12]; after first 3 weeks, CoPP 2.5 μmol/kg b.w. i.m. weekly) was “progressively decreased thereafter to a nadir at day 74” and the “Recovery of body weight” value ([12]; by day 84, CoPP 2.5 μmol/kg b.w. i.m. weekly, 9 doses) was “returned to their pre-treatment weights”. The Mean weights ([12]; first 3 weeks of treatment, CoPP 2.5 μmol/kg b.w. i.m. weekly) was “unchanged”, the “Loss of body weight” value ([12]; nadir at day 74, CoPP 2.5 μmol/kg b.w. i.m. weekly, 9 doses) was “approximately 25 % of their body weight” and the LH (LH) was 24.2 ± 6.14 ng/mL. For the same compound, the “Testosterone concentrations vs vehicle-treated rats” value (testosterone [13]) was “without significant changes in testosterone concentration; also recorded: not significantly different”, the Ethylmorphine demethylase [14] was 0.49 ± 0.04 μmol form/mg prot/hr and the “Cytochrome P-450 content of the liver” value (cytochrome P-450 [15]) was “deplete the cytochrome P-450 content of the liver”. It also gave an Insulin (Insulin) of 191 ± 43.6 μU/ml, a Testosterone (Testosterone [16]; Day 71, control 1.96 ± 0.29) of 1.72 ± 0.23 ng/mL and a Testosterone (Testosterone [16]; Day 124, control 2.64 ± 0.25) of 3.59 ± 0.90 ng/mL. For the same compound, the “Loss of body weight after single i/vt treatment” value [17] was “prolonged weight loss; also recorded: prompt decrease in weight”, the “Weight differential between treated and untreated animals” value [17] was “maintained for the duration of the treatment” and the “Cytochrome P-450” value (Cytochrome P-450 [18]) was 0.70 ± 0.12 nmol/mg protein. The “Improved P/F ratio, lowest dosage” value [3] was “continues even down to as low as 0.1 μm/kg b.w”, the “Weight control activity, lowest dosage” value [3] was “continues even down to as low as 0.1 μm/kg b.w” and the P/F ratio [3, 21] was “improved P/F ratios”. It also gave an Aniline hydroxylase (Aniline hydroxylase) of 74 ± 4.62 nmol p-aminop./mg prot/hr.

Source: patent US4997828A, “Method of weight control by low level administration of cobalt protoporphyrin or cobalt mesoporphyrin” (The Rockefeller University, priority 1989, dated 1991)
